In patent US10718782B2, “Method of evaluating cellulite and method of evaluating cellulite-effective drug using fibulin-3 and/or sarcoglycan gamma as an indicator” (Shiseido Company, Ltd., priority 2012, dated 2020):

Assays:
[1] = tested on: fibulin-3; assay: Addition of known cellulite-improving drugs to cultured fibroblasts, fibulin-3 expression by quantitative PCR; assay type: cell-based; settings: fibroblasts derived from human skin tissue, serum-free medium, 24 hours; conjugated linoleic acid 0.001% and 0.01% v/v, nicotinamide 0.0005% and 0.005% v/v; mRNA vs control
Method: (§1) Quantitative RT-PCR was carried out by using synthesized cDNA as the template, and further by using a reaction reagent LightCycler (registered trademark) FastStart DNA MasterPlus SYBR Green (Roche), and a reaction instrument LightCycler (Roche) or AB 7900 HT Fast Real-Time PCR System (Applied Biosystems). The condition for composition was as described in Roche's protocol. The annealing temperature of the primers was set at 60° C., and quantitated by using ΔΔCt method.
(§2) Fibroblasts derived from human skin tissue were plated in a 24-well type I collagen-coated dish (IWAKI), and cultured to 70-80% confluence in a 10% bovine fetal serum-supplemented DMEM (Gibco/Invitrogen) under the condition of 37° C. and 5% CO2. After replacing with a serum-free medium for half a day, it was further replaced with a serum-free medium with varying concentrations of conjugated linoleic acid (Sigma) (0.001% v/v, 0.01% v/v) or nicotinamide (Sigma) (0.0005% v/v, 0.005% v/v). 24 hours later, RNA was recovered by using RNeasy mini kit (Qiagen) according to Qiagen's protocol. As a control, RNA prepared and recovered by substituting the medium with an intact serum-free medium, and recovering RNA 24 hours later was used. The concentration of the recovered RNA was determined using a nucleic acid quantitation instrument Nanodrop (Thermo Scientific). […]

[2] = tested on: sarcoglycan gamma; assay: Addition of known cellulite-improving drugs to cultured fibroblasts, sarcoglycan gamma expression by quantitative PCR; assay type: cell-based; settings: fibroblasts derived from human skin tissue, serum-free medium, 24 hours; conjugated linoleic acid 0.001% and 0.01% v/v, nicotinamide 0.0005% and 0.005% v/v; mRNA vs control
Method: as §1, §2

[3] = tested on: cellulite; settings: applied on the affected cellulite site; Patent Literature 1 and 2, Non-patent Literature 8; cited from earlier work

Compound | expression of fibulin-3 [1] | expression of sarcoglycan gamma [2] | alleviation of cellulite [3]
conjugated linoleic acid | enhanced the expression of fibulin-3 and sarcoglycan in a dose-dependent manner | enhanced the expression of fibulin-3 and sarcoglycan in a dose-dependent manner | alleviate cellulite
NC(=O)c1cccnc1 [nicotinamide] | enhanced the expression of fibulin-3 and sarcoglycan in a dose-dependent manner | enhanced the expression of fibulin-3 and sarcoglycan in a dose-dependent manner | alleviate cellulite
sulfocarbiose | – | – | alleviate cellulite
